Legend:
embryonic zebrafish = details: cited from earlier work
[1] = Sorption control wells: abiotic losses to polystyrene 96-well microplate; type: physicochemical
zebrafish embryos [2] = details: Tropical 5D wild-type, in vivo, 35 μM; for Chemical uptake amount as share of the total chemical amount added: 5 day
[3] = estimated; cited from earlier work
zebrafish embryos [4] = details: ~120 hpf; for Incidence of any effect in embryonic zebrafish: 35 μM exposure with daily UV fluorescence measurement
[5] = ref Hazard Substances Data Bank (HSDB); cited from earlier work

Row | Compound | Lowest observed adverse effect level (LOAEL) (embryonic zebrafish) | Actual equilibrium media concentration ([1]; control wells, reached after 1 day, ~35 μM nominal) | Total uptake mass per zebrafish embryo, corrected for abiotic losses (zebrafish embryos [2]) | Chemical uptake amount as share of the total chemical amount added (zebrafish embryos [2]) | log Kow [3] | Incidence of any effect in embryonic zebrafish (zebrafish embryos [4]) | Endpoints observed shared by both chemicals (zebrafish embryos [4]; 35 μM exposure) | Henry's coefficient [5] | Decrease in sorption rate when plates were removed from the shaker table ([1]; t ≤ 1 day vs t ≥ 1 day) | Further endpoints observed (zebrafish embryos [4]; 35 μM exposure)
1 | Oc1ccc2ccccc2c1 [2-hydroxynaphthalene] | 35 µM | approximately 31.5 μM | 2.09 ± 0.89 nmol | approximately 50% | 2.7 | 97% | mortality, yolk sac and pericardial edema, and pectoral fin malformation | 2.7 × 10^−8 atm m^3 mol^−1 | – | –
2 | c1ccc2nc3ccccc3cc2c1 [acridine, Acridine] | 35 µM | – | 0.67 ± 0.26 nmol | ~21% | 3.4 | 100% | mortality, yolk sac and pericardial edema, and pectoral fin malformation | 4 × 10^−7 atm m^3 mol^−1 | 2 factor | Axis and cranial deformities
